In article PMC12486805, “Preclinical evaluation of tridecaptin M: in vitro and in vivo efficacy against colistin-resistant Gram-negative bacterial pathogens and pharmacokinetics” (Antimicrobial Agents and Chemotherapy, 2025):
≈ marks a conversion by molar mass, not a printed value. Where two headings read alike, the source gives them in different places. Where a SMILES comes first, the peptide text is derived from it. [ ]: non-standard residue; d: D form. The star is where a group is joined. d(aIle) = CC[C@H](C)[C@@H](N)C(=O)O; X1 = CC[C@H](C)CCCCC(=O)*; dDab = NCC[C@@H](N)C(=O)O; Dab = NCC[C@H](N)C(=O)O

Experiments:
CYP2D6 = CYP2D6 (Homo sapiens, UniProt P10635); assay: CYP inhibition assay, recombinant isoform, fluorescence; format: biochemical
Procedure: (§1) The CYP inhibition assay was performed for test/control inhibitor items in duplicates using a 96-well fluorescence plate. An example of the preparation of CYP inhibition is given below in Table 8.
(§2) The plate with CYP master premix with test/control was incubated to allow the test/control samples to interact with CYP enzyme for 10 ± 1 min at 25°C under shaking conditions (400 rpm) using Thermomixer. The assay was initiated by adding 10 µL of a substrate and NADP^+ mixture to all wells, including a vehicle control and an assay blank. […] After incubation, the reaction was quenched by adding 50 µL of stop reagent (0.5 M Tris base) to each well.

CYP3A4 = CYP3A4 (Homo sapiens, UniProt P08684); assay: as above; format: biochemical
Procedure: as §1, §2

CYP2C19 = CYP2C19 (Homo sapiens, UniProt P33261); assay: as above; format: biochemical
Procedure: as §1, §2

in vitro [1] = details: rat, microsomes
Procedure: (§3) For without cofactors, 20 µL of PBS was added instead of pre-incubated cofactors. […] At each specified time, a 100 µL sample was taken, processed through a sample extraction procedure, and submitted for LC-MS/MS analysis ([35]). Half-life (t1/2) of test/control items was determined using the following equation
(§4) where, elimination rate constant (k) = −(slope of linear regression curve).

[2] = 14-day repeat dose toxicity in mice; details: 15 mg/kg/day in two s.c. doses, 14 days
Procedure: Organs were fixed in 10% formalin for histopathology, and the serum was centrifuged from whole blood. The blood was left undisturbed for 20 min and centrifuged at 1,000 × g for 10 min to isolate serum for biochemical tests of the kidney and liver toxicity evaluation ([22]).

in vivo = details: male, Sprague-Dawley, rat, plasma, 5 mg/kg; for Cmax / half-life: 5 mg/kg b.w.
Procedure: The samples were then centrifuged at 4,000 rpm for 10 min at 4°C to separate plasma, which was stored at −80°C until analysis.

mammalian cell lines = details: cited from earlier work
E. coli = format: cell-based, Escherichia coli
Procedure: The MIC for all isolates was determined using the broth microdilution method. This involved preparing CA-MHB medium and serially diluting antibiotic solutions by a factor of two. The test organism was adjusted to a concentration of ≈5 × 10^5 CFU/mL. In a sterile 96-well microtiter plate, 100 µL of CA-MHB, along with 100 µL of each antibiotic, was added, and serial dilutions were made. A 100 µL suspension of the organism was added to each well and mixed, resulting in a total reaction volume of 200 µL per well. The plate was then incubated at 37°C for 16–18 h. The MIC was identified as the lowest concentration of antibiotic that prevented any visible growth of the organism ([16]).

in vitro [3] = details: mouse, plasma, % Binding to Plasma Protein
Procedure: Plasma protein binding was assessed using the rapid equilibrium dialysis (RED) method, utilizing RED insert devices with a dialysis membrane featuring an 8,000 Dalton molecular weight cutoff for proteins. The test/control items in human, rat, and mouse plasma were prepared at a test concentration of 10 µM using 10 mM DMSO stocks, and the samples were added to the plasma chamber of the RED insert. The device was sealed with tape and incubated in a thermomixer at 37°C with shaking at 300 rpm for 4 h. Following incubation, a 50 µL aliquot of plasma and buffer was collected from each insert and diluted with an equal volume of the opposite matrix to mitigate matrix effects. The samples were quantified using LC-MS/MS analysis and were tested in duplicates.

in vitro [4] = details: human, microsomes, pH 7.4
Procedure: as §3, §4

[5] = 12 mg/kg every 2 h up to 12 h, total 72 mg/kg; cited from earlier work
CYP1A2 = target: T1, CYP1A2 (Homo sapiens, UniProt P05177); assay: biochemical; format: biochemical
T1 sequence (P05177 1-516): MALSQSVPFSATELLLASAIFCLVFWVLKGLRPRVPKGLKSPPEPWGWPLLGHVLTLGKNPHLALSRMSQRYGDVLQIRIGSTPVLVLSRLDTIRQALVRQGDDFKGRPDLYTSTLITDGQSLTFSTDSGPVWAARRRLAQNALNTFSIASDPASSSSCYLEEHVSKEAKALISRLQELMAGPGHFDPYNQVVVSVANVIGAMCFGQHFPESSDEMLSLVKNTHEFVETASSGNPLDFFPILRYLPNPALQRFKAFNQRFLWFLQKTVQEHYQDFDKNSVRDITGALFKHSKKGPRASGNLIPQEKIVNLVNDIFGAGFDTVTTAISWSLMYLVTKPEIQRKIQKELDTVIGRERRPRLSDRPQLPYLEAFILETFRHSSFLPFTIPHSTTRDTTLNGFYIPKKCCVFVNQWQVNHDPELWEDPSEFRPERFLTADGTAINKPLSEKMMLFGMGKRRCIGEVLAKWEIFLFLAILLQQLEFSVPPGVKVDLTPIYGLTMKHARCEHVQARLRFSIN
Procedure: as §1, §2

[6] = subcutaneous, 5 mg/kg b.w., plasma

Sequence of CYP3A4 (P08684 whole entry): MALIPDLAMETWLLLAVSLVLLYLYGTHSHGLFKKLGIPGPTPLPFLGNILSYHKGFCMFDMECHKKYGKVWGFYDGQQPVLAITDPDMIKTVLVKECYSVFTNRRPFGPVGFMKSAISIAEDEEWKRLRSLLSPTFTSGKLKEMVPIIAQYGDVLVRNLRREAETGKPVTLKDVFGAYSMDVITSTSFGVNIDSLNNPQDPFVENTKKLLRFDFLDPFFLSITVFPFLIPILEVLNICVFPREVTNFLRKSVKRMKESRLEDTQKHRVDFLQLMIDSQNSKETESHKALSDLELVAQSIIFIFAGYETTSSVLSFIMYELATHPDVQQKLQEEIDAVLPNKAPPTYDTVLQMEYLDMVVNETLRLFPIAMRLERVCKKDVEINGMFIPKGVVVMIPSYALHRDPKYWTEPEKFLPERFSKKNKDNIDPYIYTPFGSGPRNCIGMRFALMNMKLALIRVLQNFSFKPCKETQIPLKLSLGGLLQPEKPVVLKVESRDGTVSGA
Sequence of CYP2C19 (P33261 whole entry): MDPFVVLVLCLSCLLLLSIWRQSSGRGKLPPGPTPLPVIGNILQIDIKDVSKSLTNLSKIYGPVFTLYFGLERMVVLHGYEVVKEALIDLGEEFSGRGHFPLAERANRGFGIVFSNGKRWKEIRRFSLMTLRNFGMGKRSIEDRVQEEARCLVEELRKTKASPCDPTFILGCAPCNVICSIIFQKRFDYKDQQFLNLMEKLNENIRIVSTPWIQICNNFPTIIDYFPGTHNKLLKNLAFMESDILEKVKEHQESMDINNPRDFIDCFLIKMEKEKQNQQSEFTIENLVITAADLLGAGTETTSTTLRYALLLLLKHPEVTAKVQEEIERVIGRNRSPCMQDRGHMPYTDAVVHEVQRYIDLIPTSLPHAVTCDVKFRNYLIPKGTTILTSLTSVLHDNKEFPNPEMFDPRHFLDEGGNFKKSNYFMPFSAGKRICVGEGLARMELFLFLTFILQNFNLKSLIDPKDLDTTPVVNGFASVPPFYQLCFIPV
Sequence of CYP2D6 (P10635 whole entry, canonical isoform): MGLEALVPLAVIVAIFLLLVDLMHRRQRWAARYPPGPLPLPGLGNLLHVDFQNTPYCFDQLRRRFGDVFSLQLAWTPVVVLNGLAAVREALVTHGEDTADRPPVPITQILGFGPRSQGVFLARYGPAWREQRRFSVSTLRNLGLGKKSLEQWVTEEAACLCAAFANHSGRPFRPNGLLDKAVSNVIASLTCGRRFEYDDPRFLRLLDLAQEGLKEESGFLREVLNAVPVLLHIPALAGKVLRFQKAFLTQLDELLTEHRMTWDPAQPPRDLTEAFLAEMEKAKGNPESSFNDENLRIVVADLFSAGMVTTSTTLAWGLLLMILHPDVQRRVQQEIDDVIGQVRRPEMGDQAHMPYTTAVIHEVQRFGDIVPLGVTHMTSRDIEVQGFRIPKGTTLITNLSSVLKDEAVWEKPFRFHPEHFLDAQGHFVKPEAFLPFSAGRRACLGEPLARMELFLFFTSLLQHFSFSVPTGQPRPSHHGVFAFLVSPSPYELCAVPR

CC[C@H](C)CCCCC(=O)NCC(=O)N[C@H](CCN)C(=O)NCC(=O)N[C@H](CO)C(=O)N[C@H](Cc1c[nH]c2ccccc12)C(=O)N[C@@H](CO)C(=O)N[C@@H](CCN)C(=O)N[C@H](CCN)C(=O)N[C@H](C(=O)N[C@@H](CCC(=O)O)C(=O)N[C@H](C(=O)N[C@@H](C(=O)N[C@@H](CO)C(=O)O)[C@@H](C)CC)[C@@H](C)CC)[C@@H](C)CC [Tridecaptin M, tridecaptin M] (X1-G[dDab]G[dS][dW]S[Dab][dDab]IEI[d(aIle)]S-OH)
IC50 (CYP2D6): > 30 µM
inhibition at 25 min, 0.01 µM (CYP2D6; human): < 0%
inhibition at 25 min, 0.03 µM (CYP2D6; human): < 0%
inhibition at 25 min, 0.1 µM (CYP2D6; human): < 0%
inhibition at 25 min, 0.3 µM (CYP2D6; human): < 0%
inhibition at 25 min, 1 µM (CYP2D6; human): < 0%
inhibition at 25 min, 3 µM (CYP2D6; human): 1.28%
inhibition at 25 min, 10 µM (CYP2D6; human): 10.9%
inhibition at 25 min, 30 µM (CYP2D6; human): 13.1%
IC50 (CYP3A4): > 30 µM
inhibition at 25 min, 0.01 µM (CYP3A4; human): < 0%
inhibition at 25 min, 0.03 µM (CYP3A4; human): < 0%
inhibition at 25 min, 0.1 µM (CYP3A4; human): < 0%
inhibition at 25 min, 0.3 µM (CYP3A4; human): < 0%
inhibition at 25 min, 1 µM (CYP3A4; human): 3.77%
inhibition at 25 min, 3 µM (CYP3A4; human): 9%
inhibition at 25 min, 10 µM (CYP3A4; human): 28%
inhibition at 25 min, 30 µM (CYP3A4; human): 26.6%
IC50 (CYP2C19): > 30 µM
inhibition at 25 min, 0.01 µM (CYP2C19; human): < 0%
inhibition at 25 min, 0.03 µM (CYP2C19; human): < 0%
inhibition at 25 min, 0.1 µM (CYP2C19; human): < 0%
inhibition at 25 min, 0.3 µM (CYP2C19; human): < 0%
inhibition at 25 min, 1 µM (CYP2C19; human): < 0%
inhibition at 25 min, 3 µM (CYP2C19; human): 0.13%
inhibition at 25 min, 10 µM (CYP2C19; human): 5.67%
inhibition at 25 min, 30 µM (CYP2C19; human): 11.7%
half-life (in vitro [1]; pH 7.4): > 120 min
remaining at 0.25 h (in vitro [1]; pH 7.4): 86.4%
remaining at 0.5 h (in vitro [1]; pH 7.4): 76.5%
remaining at 1 h (in vitro [1]; pH 7.4): 70.1%
remaining at 2 h (in vitro [1]; pH 7.4): 58.8%
microsomal CLint (in vitro [1]; pH 7.4, CL, rat liver microsomes): < 11 µL/min/mg
ALP (serum) [2]: 77.33 ± 27.47 U/L
Albumin (serum) [2]: 2.60 ± 0.47 g/dL
BBilirubin (serum) [2]: 0.31 ± 0.06 mg/dL
BUN (serum) [2]: 35.33 ± 11.43 mg%
Calcium (serum) [2]: 7.76 ± 2.19 mg%
Creatinine (serum) [2]: 0.41 ± 0.026 mg%
Globulin (serum) [2]: 3.53 ± 0.83 g/dL
Phosphorous (serum) [2]: 7.36 ± 1.27 mg%
Proteins (serum) [2]: 6.13 ± 1.06 g/dL
SGOT (serum) [2]: 657.33 ± 141.06 Units/L
SGPT (serum) [2]: 103.67 ± 40.70 Units/L
Uric acid (serum) [2]: 4.6 ± 1.89 mg%
histopathological analysis of liver and kidneys [2]: no signs of toxicity
AUC(0-t) (in vivo; iv): 94600 ± 45000 ng·h/mL
MRT last (in vivo; iv): 2.69 ± 1.02 h
Vd (in vivo; iv): 0.16 ± 0.04 L/kg
clearance (in vivo; iv): 1 ± 0.33 mL/min/kg
Cmax (in vivo; iv): 38500 ng/mL
half-life (in vivo; iv, T1/2, intravenous): 219 ± 33.6 min
AUC(0-t) (in vivo; sc): 14000 ± 2090 ng·h/mL
MRT last (in vivo; sc): 8.81 ± 2.1 h
Cmax (in vivo; sc, subcutaneous): 9150 ± 1700 ng/mL
half-life (in vivo; sc, T1/2, subcutaneous): 529 min
cytotoxicity (mammalian cell lines): non-cytotoxic
MIC (E. coli): 4 µg/mL (≈ 2.69 µM)
MIC50 (E. coli): 4 µg/mL (≈ 2.69 µM)
MIC range (E. coli): 1 to 8 µg/mL
MIC values (E. coli): 2 to 8 µg/mL
fraction unbound at 4 h, 10 µM (in vitro [3]): 0.5
half-life (in vitro [4]): 78.8 min
microsomal CLint (in vitro [4]): 17.6 µL/min/mg
remaining at 0.25 h (in vitro [4]): 58%
remaining at 0.5 h (in vitro [4]): 50.2%
remaining at 1 h (in vitro [4]): 53.7%
remaining at 2 h (in vitro [4]): 48.4%
tolerance in acute toxicity study [5]: good tolerance
IC50 (CYP1A2): > 30 µM
inhibition at 25 min, 0.01 µM (CYP1A2; human, % inhibition CYP 1A2): < 0%
inhibition at 25 min, 0.03 µM (CYP1A2; human, % inhibition CYP 1A2): < 0%
inhibition at 25 min, 0.1 µM (CYP1A2; human, % inhibition CYP 1A2): < 0%
inhibition at 25 min, 0.3 µM (CYP1A2; human, % inhibition CYP 1A2): < 0%
inhibition at 25 min, 1 µM (CYP1A2; human, % inhibition CYP 1A2): < 0%
inhibition at 25 min, 3 µM (CYP1A2; human, % inhibition CYP 1A2): < 0%
inhibition at 25 min, 10 µM (CYP1A2; human, % inhibition CYP 1A2): < 0%
inhibition at 25 min, 30 µM (CYP1A2; human, % inhibition CYP 1A2): ≤ 0%
Cmax relative to the MIC value (intravenous, 5mg/kg b.w.): about 10 times
time plasma concentration maintained above MIC (4µg/mL) (intravenous, 5mg/kg b.w.): about 4 h
Cmax (intravenous, 5 mg/kg b.w., plasma, 5 mg/kg): 43.2 ± 6.02 µg/mL
CL [6]: 4.95 ± 0.24 mL/min/kg
Vss [6]: 2.63 ± 0.45 L/kg
T1/2 (subcutaneous, 5 mg/kg b.w., plasma, 5 mg/kg): 8.56 ± 1.60 h
